Patent US7786298B2, “Compounds and methods for nucleic acid mismatch detection” (California Institute of Technology, priority 2006, dated 2010)

System: oligonucleotides containing a central CC mismatch
Assay: Photocleavage testing, denaturing PAGE of 5′-32P-end-labeled oligonucleotides
Format: biochemical
Details: duplex 1 μM, Rh 1 μM, 20 mM NaCl, 10 mM NaPi, pH 7.1, 30 min, irradiation 5 min (325-450 nm); fully matched and mismatched oligonucleotides
Experimental: Compounds PEG-RhOG and [Rh(chrysi)(phen)(^PEGbipy)]^3+(i.e., compound A and intermediate 2, respectively, as described above) were used for photocleavage testing. Denaturing PAGE experiments with 5′-32P-end-labeled oligonucleotides containing or lacking a central CC mismatch were employed to test specific site targeting. Duplex DNA (1 μM) was incubated with variable concentrations of compound A (100 nm to 5 μM) for 30 min and then irradiated for 5 min.
Conditions were duplex (1 μM), Rh (1 μM) in 20 mM NaCl, 10 mM NaPi, pH 7.1 for 30 min at ambient temperature followed by irradiation for 5 min with a solar simulator (325-450 nm). Lanes 1, 2, 11, and 12 show Maxam-Gilbert sequencing reactions for matched (1, 2) and mismatched (11, 12) DNA. For matched and mismatched DNA, respectively, lanes 3 and 7 show fragments irradiated with no metal complex; lanes 4 and 8 show fragments with compound A but no irradiation; lanes 5, 6, 9, and 10 show fragments after irradiation in the presence of compound A (5, 9) and intermediate 2 (6, 10). The DNA sequence was 5′-32P-end-labeled-GCGCCGTCGTXCATGTG-3′ (SEQ ID NO:4) where X=C, G with a complement containing a matched or mismatched C at the bold site. The arrow marks the mismatched site.

[Rh(chrysi)(phen)(^PEGbipy)]^3+ [intermediate 2]
photocleavage on autoradiogram of denaturing 20% polyacrylamide gel: photocleavage
